Measurements: PMC6413118, “Active Components, Antioxidant, Inhibition on Metabolic Syndrome Related Enzymes, and Monthly Variations in Mature Leaf Hawk Tea” (Molecules, 2019)

Molecular target: T1, porcine pancreatic lipase (Sus scrofa, UniProt P00591)
T1 construct: gene PNLIP; EC printed is that of carboxylesterase
T1 sequence (P00591 1-450): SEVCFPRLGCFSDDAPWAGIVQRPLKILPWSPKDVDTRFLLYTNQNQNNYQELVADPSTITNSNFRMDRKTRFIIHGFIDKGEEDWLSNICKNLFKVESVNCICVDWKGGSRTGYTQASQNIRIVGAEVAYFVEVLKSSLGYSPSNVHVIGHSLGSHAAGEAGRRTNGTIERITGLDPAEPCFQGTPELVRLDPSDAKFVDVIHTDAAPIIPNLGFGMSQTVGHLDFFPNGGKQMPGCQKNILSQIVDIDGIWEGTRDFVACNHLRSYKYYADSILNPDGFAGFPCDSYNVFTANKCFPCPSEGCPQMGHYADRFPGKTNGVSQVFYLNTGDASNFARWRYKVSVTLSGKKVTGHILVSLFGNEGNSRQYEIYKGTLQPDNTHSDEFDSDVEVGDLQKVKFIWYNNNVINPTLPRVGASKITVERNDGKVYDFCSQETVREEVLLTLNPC
Assay: p-nitrophenyl palmitate hydrolysis, absorbance […] nm, microplate
Type: biochemical
Settings: 10 mM p-nitrophenyl palmitate stock (20 μL), 0.1 M sodium phosphate pH 7, 37 °C, 20 min; unreliable: table and text disagree tenfold

- Lipase IC50: 600 ng/mL
SMILES: CCCCCCCCCCC[C@@H](C[C@@H]1OC(=O)[C@H]1CCCCCC)OC(=O)[C@H](CC(C)C)NC=O [Orlistat]
